Experimental data from PMC5963095 (International Journal for Parasitology: Drugs and Drug …, 2017).

Key:
[1] = target: T1, PfEXP1 (expressed in Pichia pastoris) (Plasmodium falciparum, UniProt Q8IIF0); assay: glutathione S-transferase assay, absorbance at […] nm; assay type: biochemical
T1 sequence (Q8IIF0 23-162): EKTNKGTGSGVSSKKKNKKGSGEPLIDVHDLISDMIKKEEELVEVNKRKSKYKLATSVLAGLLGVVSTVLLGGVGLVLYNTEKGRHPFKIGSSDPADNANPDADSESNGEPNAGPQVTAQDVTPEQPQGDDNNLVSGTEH

PfEXP1 = target: T2, PfEXP1 (Plasmodium falciparum, UniProt Q8IIF0); assay: as above; assay type: biochemical
T2 sequence (Q8IIF0 23-162): T1 sequence (Q8IIF0 23-162)

Row | SMILES | IC50 [1] | IC50 (PfEXP1)
1 | C=C[C@H]1C[N@@]2CC[C@H]1C[C@H]2[C@H](O)c1ccnc2ccc(OC)cc12 [quinine] | 179 ± 52.1 nM | 
2 | CCN(CC)CCCC(C)Nc1ccnc2cc(Cl)ccc12 (stereo not drawn) [chloroquine] | 11.1 ± 4.12 nM | 19.3 ± 2.67 nM
